Assays:
[1] = tested on: HER2 extracellular variants; assay: Covalent dimer formation of HER2 extracellular variants, Western blot; format: cell-based; settings: Type I inhibitors
BaF3-HER2-Δ16 cells = assay: Proliferation of BaF3 cells driven by HER2-Δ16; format: cell-based, murine; settings: sub-saturating concentrations
Procedure: Assay for cell proliferation: BaF3 cell lines were resuspended at 1.3E5 c/ml in RPMI containing 10% Heat Inactivated FBS, 2% L-glutamine and 1% Pen/Strep and dispensed in triplicate (17.5E4 c/well) into 96 well plates. To determine the effect of drug on cell proliferation, cells incubated for 3 days in the presence of vehicle control or test drug at varying concentrations. Inhibition of cell growth was determined by luminescent quantification of intracellular ATP content using CellTiterGlo (Promega), according to the protocol provided by the manufacturer. Comparison of cell number on day 0 versus 72 hours post drug treatment was used to plot dose-response curves. The number of viable cells was determined and normalized to vehicle-treated controls. […] EC50 values were determined with the same application.

[2] = tested on: covalently-activated EGFR variants; assay: Covalent dimer formation, Western blot under non-reducing conditions; format: cell-based; settings: FIG. 18 legend
[3] = tested on: cells having the EGFR-Vii mutation; assay: Proliferation of cells having the EGFR-Vii mutation (FIG. 18); format: cell-based
Procedure: EC50 values were determined with the same application.

Row | SMILES | covalent dimers for HER2 extracellular variants [1] | proliferation of BaF3 cells driven by HER2-Δ16 (BaF3-HER2-Δ16 cells) | dimerization for covalently activated ErbB receptors [2] | cellular proliferation in response to the inhibitor [3]
1 | CNC(=O)CN1CCC(Oc2cc3c(Nc4cccc(Cl)c4F)ncnc3cc2OC)CC1 [sapitinib] | induce the expression of covalent dimers | paradoxically stimulate the proliferation | – | –
2 | CN(C)C/C=C/C(=O)Nc1cc2c(Nc3ccc(F)c(Cl)c3)ncnc2cc1C#CC1[C@H]2COC[C@@H]12 (stereo partly shown) [NT-113] | – | – | induces dimerization | no evidence for increased cellular proliferation

Reference: patent US11034672B1, “Tyrosine kinase inhibitor compositions, methods of making and methods of use” (Black Diamond Therapeutics, Inc., priority 2018, dated 2021)
